In patent US20220072009A1, “SHORT-ACTING SELECTIVE GLUCOCORTICOID RECEPTOR MODULATORS” (PANDA CONSULTING LLC, priority 2018, published 2022):

Columns and labels:
[1] = tested on: MDCK cell monolayers; settings: pH 7.4
Description: BBB penetration is assessed in vitro using confluent MDCK cell monolayers and dosing of 504 of test compounds on apical and basolateral side of the monolayer at pH 7.4 for 90 min. The apparent permeability in both directions, and the efflux ratio is determined after subjecting samples to LC-MS/MS analysis.

[2] = tested on: corticosterone; settings: mouse, in vivo, po, 30 mg/kg
[3] = reported, cited from earlier work
[4] = tested on: rat hepatocytes; settings: in vitro, reported; cited from earlier work
[5] = tested on: male CD-1 mice; test: elevated plus maze test (EPM), mouse model of stress-induced anxiety; type: in vivo
Description: Formula III (also referred to as PND-001) as a representative compound out of the class of SASGRMs was tested in a mouse model of stress-induced anxiety, the elevated plus maze test (EPM) (Experiment 1). The EPM relies on the inherent conflict between a rodent's tendency to explore a novel environment on one hand, and the stress of such exploration, resulting in avoidance of the aversive properties of the brightly lit open arms. Compounds that reduce anxiety specifically increase the frequency of entries into the open arms and time spent in the open arms.
Four to five week-old male CD-1 mice were group-housed (6 or 7 mice per cage) and maintained in a room with controlled temperature (21-22° C.) and a reversed light-dark cycle (12 h/12 h; lights on: 17:30-05:30; lights off: 05:30-17:30) with food and water available ad libitum.
Formula III and the vehicle (5% Dimethyl Sulfoxide (DMSO) and 95% Polyethylene Glycol 400 (PEG400)) were s.c. administrated 24 hours and 6 hours prior the EPM trial.
Diazepam was p.o. administrated 60 min prior the EPM trial as a positive control.
Formula III was tested in doses of 10, 30 and 100 mg/kg. Diazepam was p.o administrated 60 min prior the EPM trial and tested in a dose of 1 mg/kg. (see Table 1).
The mice were randomly assigned to one of the different experimental groups. Each animal was identified by its group name, cage number, series (day) of experiment, and a number (from 1 to 12) written with permanent ink on its tail.
The apparatus was a PVC maze covered with Plexiglas and subdivided into four equal exploratory arms (21×8 cm), which are all interconnected by a small platform (8×8 cm). The apparatus was placed 59 cm above the floor. Two arms are opened and two others are closed with wall (high: 21 cm).
After compound administration, mouse was placed on the platform opposite a closed arm. The number of entries and the time spent in each arm were recorded during a 5 min period. The animal was considered as entered in an arm when it places its four paws in the arm.
Analysis of variance (ANOVA) was performed on the result data. Fisher's PLSD was used for pairwise comparisons and p value ≤0.05 were considered significant.
In the next experiment in the Elevated Plus Maze Test (Experiment 2; conducted as described under the same experimental procedures and analysis as described for Experiment 1), the efficacy of Formula III (also referred to as PND001) at lower doses was studied. […] Compounds or vehicle (5% Dimethyl Sulfoxide (DMSO) and 95% Polyethylene Glycol 400 (PEG400)) were administrated s.c. 24 hours and 6 hours prior the EPM trial (Table 3).
Formula III (PND 001) was tested in doses of 1, 3 and 10 mg/kg. Formula IV (PND 002) was tested in doses of 30 mg/kg. Diazepam was p.o administrated 60 min prior the EPM trial as positive control and tested in a dose of 1 mg/kg.
In a third experiment in the Elevated Plus Maze Test (Experiment 3), conducted as described under the same experimental procedures and analysis as described for Experiment 1, the effect of the dosing route and regimen was investigated. Formula III (also referred to as PND001) and the vehicle (5% Dimethyl Sulfoxide (DMSO) and 95% Polyethylene Glycol 400 (PEG400)) were administrated by gavage (p.o.). Diazepam was i.p. administrated 30 min prior the EPM trial as positive control.
PND 001 was tested in doses of 3 mg/kg which had the highest efficacy in Experiment 2, and administrated either twice at 6 h and 1 h before the EPM trial, or given only once at 1 h before the trial. Diazepam was i.p. administrated 30 min prior the EPM trial and tested in a dose of 1 mg/kg. (see Table 5).

[6] = tested on: human plasma proteins; settings: reported; cited from earlier work
[7] = tested on: rat plasma proteins; settings: reported; cited from earlier work
[8] = Experiment 1, 1 mg/kg po 60 min
[9] = Experiment 2, 1 mg/kg po 60 min
[10] = Experiment 3, 1 mg/kg ip 30 min
[11] = Experiment 3, 1 mg/kg, 30 min, ip
[12] = Experiment 2, 30 mg/kg sc 24 h and 6 h
[13] = Experiment 2, 30 mg/kg, 24 + 6 h, sc

For C[C@]12C=CC(=O)C=C1CCC1C2OC[C@@]2(C)C1CC[C@]2(O)C(=O)CO (some centres unmarked) [Formula V], the BBB penetration potential [1] was “moderate to high” and the corticosterone increase [2] was “not found to be significantly increased”.
With C[C@]12CCC3C(C[C@H]4OC[C@@]35CCC(=O)C=C45)C1CC[C@@H]2C(=O)CO (some centres unmarked) [Formula II] the BBB penetration potential [1] was “moderate to high” and the corticosterone increase [2] was “not found to be significantly increased”.
In the case of CC#C[C@]1(O)CCC2C3CCC4=CC(=O)CC[C@]4(Cc4ccc(C)cc4)C3=CC[C@@]21C (stereo partly drawn) [Formula I, (10R,13S,17S)-17-hydroxy-13-methyl-10-[(4-methylphenyl)methyl]-17-prop-1-ynyl-2,6,7,8,12,14,15,16-octahydro-1H-cyclopenta[a]phenanthrene-3-one], the “half life in rat liver microsomes” value ([3]; in vitro) is given as 19.8 min, the “half life in rat hepatocytes” value [4] is given as “less than 0.2 h” and the BBB penetration potential [1] is given as “moderate to high”. The corticosterone increase [2] was “not found to be significantly increased”.
For CN1C(=O)CN=C(c2ccccc2)c2cc(Cl)ccc21 [Diazepam, reference compound], the “increase in number of entries to the open arms compared to vehicle treated mice” value [5, 8] was 233%, the “increase in time spent in the open arms compared to vehicle treated mice” value [5, 8] was 327% and the “Number of entries in the open arm, Mean” value ([5]; Experiment 1, 1 mg/kg, 1 h, po) was 10.0 n. The “Time spent in the open arm, Mean” value ([5]; Experiment 1, 1 mg/kg, 1 h, po) was 59.6 s, the “increase in number of entries into the open arms compared to vehicle treated mice” value [5, 9] was 146% and the “increase in time spent into the open arms compared to vehicle treated mice” value [5, 9] was 151%. For the same compound, the “Number of entries in the open arm, Mean” value ([5]; Experiment 2, 1 mg/kg, 1 h, po) was 14.0 n, the “Time spent in the open arm, Mean” value ([5]; Experiment 2, 1 mg/kg, 1 h, po) was 84.6 s and the “increase in number of entries into the open arms compared to vehicle treated mice” value [5, 10] was 400%. For the same compound, the “increase in time spent into the open arms compared to vehicle treated mice” value [5, 10] was 270%, the “Number of entries in the open arm, Mean” value [5, 11] was 23.2 n and the “Time spent in the open arm, Mean” value [5, 11] was 116.9 s.
In the case of CC#C[C@]1(O)CC[C@H]2[C@@H]3CCC4=CC(=O)CCC4=C3[C@@H](c3ccc(N(C)C)cc3)C[C@@]21C [mifepristone], the “plasma protein binding, human serum” value [6] is given as “over 95%” and the “plasma protein binding, rat serum” value [7] is given as “over 95%”.
With CCCCCCNC(=O)[C@@]1(O)[C@H](C)CC2[C@@H]3CCC4=CC(=O)C=C[C@]4(C)[C@@]3(F)[C@@H](O)C[C@@]21C (some centres unmarked) [Formula IV] the “increase in number of entries into the open arms compared to vehicle treated mice” value [5, 12] was 77%, the “increase in time spent into the open arms compared to vehicle treated mice” value [5, 12] was 90% and the “Number of entries in the open arm, Mean” value [5, 13] was 10.1 n. The “Time spent in the open arm, Mean” value [5, 13] was 64.1 s, the “conversion to unidentified metabolites in rat liver microsomes (time)” value [3] was ≤ 30 min and the BBB penetration potential [1] was “moderate to high”. For the same compound, the corticosterone increase [2] was “not found to be significantly increased”.
